Activity calls are given as the source filed them. How the calls were made is not given here.

As a reminder, the IC50 is the concentration needed to halve the response being measured.

The test has as its system Cell-based VP16 transactivation luciferase reporter, luminescence. The test can be described thus: VP16 transactivation reporter inhibitors, dose response, counter-screen for LRH-1 inverse agonist project, cell-based, luminescence (AID 651973). A general note: A counterscreen serves to expose hits that act by an unwanted route or on another target.

Take `COc1ccc(CCNC(=O)COC(=O)C23CC4CC(CC(C4)C2)C3)cc1`: the IC50 is > 35.9 µM (inactive).

In the case of `Cc1c(Cl)cccc1NC(=O)CS(=O)(=O)c1ccccc1`, the IC50 was > 35.8 µM (inactive). The result for `CCCN(CC(=O)Nc1ccc(C(C)=O)cc1)CC(=O)Nc1ccccc1C` reads > 35.9 µM (inactive); that for `COc1ccc(CCNC(=O)CSc2ccc(NC(C)=O)cc2)cc1OC`, > 35.9 µM (inactive). Then `CC1(C(=O)NCc2ccc3c(c2)OCO3)CCN1C(=O)Cc1ccc(Cl)cc1Cl` (stereo not given), with > 35.9 µM (inactive). Then `COc1cccc(NC(=O)c2oc3ccccc3c2NC(=O)C2CC2)c1`, with > 35.9 µM (inactive); and `O=C(CSc1nc(=O)n2cc(Cl)ccc2n1)Nc1ccc2c(c1)OCCO2`, with > 35.9 µM (inactive). As to `CCc1cc(=O)[nH]c(SCC(=O)Nc2ccc3c(c2)OCCO3)n1`, the IC50 was > 35.9 µM (inactive).

Take `O=C(CSc1n[nH]c(-c2ccccc2)n1)Nc1ccc(F)cc1F`: the IC50 is > 35.9 µM (inactive). Then `CC(=O)Nc1cc(-c2cccnc2)cn2c(-c3ccc(F)cc3)cnc12`, with > 35.9 µM (inactive); and `COc1cc(C(=O)Nc2ccccc2C2COC(=O)C2=N)cc(OC)c1OC` (stereo not given), with > 35.9 µM (inactive).

As for `COc1cc(OC)cc(-c2oc3cccnc3c2C#CCCO)c1`, the IC50 is > 35.9 µM (inactive).

For `Cc1nnc(SCC(=O)Nc2ccc(Br)cc2)n(N)c1=O`, the IC50 is > 35.9 µM (inactive).

`COc1cc(NC(=O)Cn2ccsc2=N)c(C)cc1[N+](=O)[O-]`: the IC50 is > 35.9 µM (inactive).

For the molecule `CCOc1cc(/C=N/n2nnnc2N)ccc1OCc1c(C)no[n+]1[O-]`, the IC50 was > 35.9 µM (inactive). The result for `CCCOc1ccc(NC(=O)CC2C(=O)N(C)C(=S)N2Cc2ccc3c(c2)OCO3)cc1` (stereo not given) reads 8.7 µM.

Regarding `COc1ccc(CCNC(=O)COC(=O)Cc2ccccc2[N+](=O)[O-])cc1`, the IC50 was > 35.9 µM (inactive). The result for `COC(=O)c1ccc(NC(=O)CN2CCN(c3ccc(Cl)cc3)CC2)cc1` reads > 35.9 µM (inactive); that for `Cc1no[n+]([O-])c1COc1ccc(/C=C2\NC(=S)NC2=O)cc1`, > 35.9 µM (inactive).

With `COc1ccc(CCNC(=O)COC(=O)c2cc(Cl)nc(Cl)c2)cc1`, the IC50 was > 35.9 µM (inactive). The result for `CC(=O)Nc1ncc(Cc2cc(Cl)ccc2Cl)s1` reads > 35.9 µM (inactive); that for `CCOc1ccc(NC(=O)COC(=O)COc2cccc3c2OC(C)(C)C3)cc1`, > 35.9 µM (inactive). The result for `CC(=O)Nc1ccc(N=c2cc([N+](=O)[O-])cc(Cl)n2O)cc1` reads > 35.9 µM (inactive); that for `CCc1cc(=O)oc2c(C)c(OCC(=O)NCCN3CCOCC3)ccc12`, > 35.9 µM (inactive); that for `CC(=O)c1ccc(OC(C)C(=O)OCC(=O)NCCc2ccccc2)cc1` (stereo not given), > 35.9 µM (inactive). Then `CCOc1ccc(CCNC(=O)CN2C(=O)NC3(CCc4ccccc43)C2=O)cc1OCC` (stereo not given), with > 35.9 µM (inactive); and `Cc1ccccc1Nc1nc(-c2cccnc2)nc2ccccc12`, with 34.6 µM (inactive); and `CCc1ccccc1NC(=O)CSc1nnc([C@@H]2CCCN2C(=O)OC(C)(C)C)o1`, with > 35.9 µM (inactive). For the molecule `COc1ccc(Nc2nc(NCCN3CCOCC3)nc(Nc3ccc(OC)cc3)n2)cc1`, the IC50 is > 35.9 µM (inactive).

With `O=C(COC(=O)c1ccc(Br)cc1)Nc1ccccc1Br`, the IC50 was > 35.9 µM (inactive).

As for `C[C@H](CO)N1C[C@H](C)[C@H](CN(C)Cc2ccncc2)Oc2cc(-c3ccccc3F)ccc2S1(=O)=O`, the IC50 is 14.6 µM (inactive). The result for `COC(=O)c1ccc(NC(=O)CSc2nn3c(=O)c(C)nnc3s2)cc1` reads > 35.9 µM (inactive); that for `Cc1ccc(NC(=O)COC(=O)C(NS(=O)(=O)c2ccc(Cl)cc2)C(C)O)c(Br)c1` (stereo not given), > 35.9 µM (inactive); that for `Cc1cc(C)c2sc(NC(=O)c3ccc([N+](=O)[O-])o3)nc2c1`, > 35.8 µM (inactive).

For the molecule `COCCn1c(C)cc(/C=C(\C#N)C(=O)OCC(=O)Nc2ccc(S(N)(=O)=O)cc2)c1C`, the IC50 was > 35.9 µM (inactive).

Turning to `CC1=CC(O)C(O)C2(C)C1CC1OC(=O)CC3C(C)C(O)C(=O)C2C13CO` (stereo not given), the IC50 is > 35.9 µM (inactive). As for `Cc1ccc(-c2nn3c(C)nnc3s2)cc1NC(=O)c1cccs1`, the IC50 was > 35.9 µM (inactive).

For `CC1CCCN(c2cc(N(C)CCO)c([N+](=O)[O-])c3nonc23)C1` (stereo not given), the IC50 was > 35.9 µM (inactive). As for `Cc1onc(-c2cccc(Cl)c2Cl)c1C(=O)O/N=C(\N)c1ccc([N+](=O)[O-])o1`, the IC50 was > 35.9 µM (inactive).

`COc1cc(/C=N/NC(N)=S)ccc1OCC(=O)Nc1ccc(C)cc1`: the IC50 was > 35.9 µM (inactive). Then `Cc1ccccc1OCC(=O)N/N=C/c1ccc([N+](=O)[O-])o1`, with 29.8 µM (inactive). The result for `Cc1nn(CC(=O)Nc2ccc3c(c2)OCCO3)c(C)c1[N+](=O)[O-]` reads > 35.9 µM (inactive).

For `COc1ccc(CCNC(=O)COC(=O)C23CC4CC(CC(Br)(C4)C2)C3)cc1`, the IC50 is > 35.9 µM (inactive). The result for `COc1ccc(NC(=O)CSc2ccc3c(c2)OCCO3)cc1` reads > 35.9 µM (inactive). The result for `Cc1ccn2c(=O)nc(SCC(=O)Nc3ccc4c(c3)OCCO4)nc2c1` reads > 35.9 µM (inactive); that for `N=c1sccn1CC(=O)Nc1ccc(S(N)(=O)=O)cc1`, > 35.9 µM (inactive).

`Cc1cc(OCC(=O)N2CCC(O)CC2)c2c(C)cc(=O)oc2c1`: the IC50 was > 35.9 µM (inactive). Then `COc1ccc(NC(=O)COC(=O)c2cc(S(=O)(=O)N3CCCC3)ccc2O)cc1`, with > 35.9 µM (inactive); and `O=C(CN1C(=O)NC2(CCCC2)C1=O)NCCc1ccc(F)cc1`, with > 35.9 µM (inactive); and `O=[N+]([O-])c1ccc(N2CCN(S(=O)(=O)c3ccccc3)CC2)cc1NCc1cccnc1`, with > 35.9 µM (inactive). Then `COc1ccc(-n2c(N)c(C(=O)NCc3cccnc3)sc2=S)cc1`, with > 35.9 µM (inactive); and `Cc1cccc(CN2C(=O)CSc3ccc(C(=O)NC4CC4)cc32)c1`, with 26.3 µM (inactive). Then `CCCc1cc(=O)oc2c(C)c(OCC(=O)NCCN3CCOCC3)ccc12`, with > 35.9 µM (inactive); and `Cc1nn(Cc2ccccc2)c(C)c1C(=O)OCC(=O)Nc1ccccc1SCC#N`, with > 35.9 µM (inactive); and `Cc1onc(-c2c(F)cccc2Cl)c1C(=O)O/N=C(\N)c1ccc([N+](=O)[O-])o1`, with > 35.9 µM (inactive). With `C/C(=N\Nc1cc(C(F)(F)F)ccc1Cl)c1ccncc1`, the IC50 was > 35.9 µM (inactive). Then `CC1CCC2(CC1)NC(=O)N(CC(=O)Nc1ccc3c(c1)OCCCO3)C2=O` (stereo not given), with > 35.9 µM (inactive); and `CC(C)Oc1cccc(-c2cc(C(=O)NN3CCOCC3)c3ccccc3n2)c1`, with > 35.9 µM (inactive); and `O=C(Nc1ccc(S(=O)(=O)N2CCOCC2)cc1)c1ccc([N+](=O)[O-])o1`, with 25.5 µM (inactive). As to `COc1ccc(CCNC(=O)COC(=O)c2cccn2C)cc1`, the IC50 is > 35.9 µM (inactive).

The values above are taken from PubChem BioAssay AID651973 (The Scripps Research Institute Molecular Screening Center, 2013).
